Laboratory results from PMC7369900 (International Journal of Molecular Sciences, 2020).
≈ marks a conversion by molar mass, not a printed value. Like-named read-outs stand apart in the source and are kept apart here.

What was measured:
[1] = test system: S. aureus ATCC 29213; experiment: microbe, parasite or virus in culture; format: cell-based, Staphylococcus aureus; settings: S. aureus ATCC 29213, MHB
Method: (§1) The antibacterial activity of TP10-NH2-based conjugates, as well as its constituents, was evaluated by microdilution assay in Mueller Hinton broth, MHB (Table 1). […] There are, however, some exceptions. […] Its activity against two other tested bacteria was somewhat lower though.
(§2) The antibacterial activity (bacteriostatic: MIC and bactericidal: MBC) of the tested compounds was determined in MHB (Mueller Hinton Broth, Sigma Aldrich, St. Louis, MO, USA) using a serial two-fold dilution method in 96-well microtiter plates according to CLSI recommendations, described in M07-A10 document. The exact conditions have been described previously. All experiments were performed in three replicates. The MIC90 and MIC50 values were defined as the concentrations of compounds tested that caused a 90% or 50% reduction of growth, respectively, comparing to the drug-free control.

[2] = test system: S. epidermidis ATCC 12228; experiment: microbe, parasite or virus in culture; format: cell-based, Staphylococcus epidermidis; settings: S. epidermidis ATCC 12228, MHB
Method: as §1, §2

[3] = test system: E. coli ATCC 25922; experiment: microbe, parasite or virus in culture; format: cell-based, Escherichia coli; settings: E. coli ATCC 25922, MHB
Method: as §1, §2

[4] = test system: P. aeruginosa ATCC 27853; experiment: microbe, parasite or virus in culture; format: cell-based, Pseudomonas aeruginosa; settings: P. aeruginosa ATCC 27853, MHB
Method: as §1, §2

[5] = target: T1, yeast DNA topoisomerase II (Saccharomyces cerevisiae, UniProt P06786); experiment: biochemical; format: biochemical
T1 construct: purchased Inspiralis (Norwich, UK)
T1 sequence (P06786 whole entry): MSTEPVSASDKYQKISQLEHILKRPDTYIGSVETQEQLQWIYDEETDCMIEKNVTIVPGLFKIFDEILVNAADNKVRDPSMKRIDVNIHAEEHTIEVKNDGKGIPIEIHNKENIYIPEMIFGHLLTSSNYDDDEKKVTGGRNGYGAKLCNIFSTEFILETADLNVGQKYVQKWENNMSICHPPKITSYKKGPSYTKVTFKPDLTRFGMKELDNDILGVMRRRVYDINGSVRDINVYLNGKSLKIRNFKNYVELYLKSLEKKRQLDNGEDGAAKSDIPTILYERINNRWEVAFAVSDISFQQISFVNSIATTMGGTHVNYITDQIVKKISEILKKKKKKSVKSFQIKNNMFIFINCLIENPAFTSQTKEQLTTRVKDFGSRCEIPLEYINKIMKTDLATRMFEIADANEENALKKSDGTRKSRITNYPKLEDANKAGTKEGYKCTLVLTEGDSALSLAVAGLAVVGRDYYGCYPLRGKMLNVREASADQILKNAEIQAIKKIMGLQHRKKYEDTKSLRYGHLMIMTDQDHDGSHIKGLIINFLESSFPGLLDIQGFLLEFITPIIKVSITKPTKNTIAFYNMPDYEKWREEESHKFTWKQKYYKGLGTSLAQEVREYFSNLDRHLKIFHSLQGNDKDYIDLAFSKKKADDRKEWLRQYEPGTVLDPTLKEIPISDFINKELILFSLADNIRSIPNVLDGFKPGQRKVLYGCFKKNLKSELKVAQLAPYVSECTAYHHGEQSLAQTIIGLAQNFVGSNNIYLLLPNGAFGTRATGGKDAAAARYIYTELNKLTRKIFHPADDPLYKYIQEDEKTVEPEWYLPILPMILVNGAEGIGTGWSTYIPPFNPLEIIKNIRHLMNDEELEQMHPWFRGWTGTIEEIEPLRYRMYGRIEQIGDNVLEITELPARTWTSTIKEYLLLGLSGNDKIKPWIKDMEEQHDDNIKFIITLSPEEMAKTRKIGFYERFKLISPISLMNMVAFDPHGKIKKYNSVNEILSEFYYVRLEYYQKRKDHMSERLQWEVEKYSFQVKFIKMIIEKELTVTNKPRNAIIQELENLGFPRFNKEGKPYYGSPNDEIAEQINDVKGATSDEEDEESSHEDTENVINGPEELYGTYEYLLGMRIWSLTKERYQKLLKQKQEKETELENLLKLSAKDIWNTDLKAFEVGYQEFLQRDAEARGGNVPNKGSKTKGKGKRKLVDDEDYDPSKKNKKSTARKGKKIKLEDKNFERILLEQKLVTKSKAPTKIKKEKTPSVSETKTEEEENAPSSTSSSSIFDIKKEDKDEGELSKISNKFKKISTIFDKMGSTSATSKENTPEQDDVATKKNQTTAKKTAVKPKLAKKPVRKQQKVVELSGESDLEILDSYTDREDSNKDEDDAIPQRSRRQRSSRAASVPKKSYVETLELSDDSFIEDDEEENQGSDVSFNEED

[6] = test system: HEK 293; experiment: cells; format: cell-based, human; settings: HEK 293, 72 h, MTT
Method: (§3) Among the conjugates, LVXC-S-S-CTP10-NH2 (5) was the least cytotoxic. […] In the case of HEK 293 and LLC-PK1 cells, the IC50 values of 5 were nearly four times higher. […] Additionally, we noted that the cancer cells Hep G2 were less sensitive to the action of the given compounds than the non-cancer cells (HEK 293 and LLC-PK1).
(§4) Cytotoxicity was assessed against three mammalian cell lines: LLC-PK1, Hep G2, and HEK 293. Multiwell (96–well) plates were seeded at 7000 cells/well in Medium 199 supplemented with 7.5% FBS, MEM Eagle’s medium supplemented with 10% FBS, or DMEM medium supplemented with 10% FBS, respectively. All media were supplemented with L-glutamine and antibiotics (penicillin/streptomycin). Cells were allowed to attach overnight. Drugs were dissolved in cell culture medium and added to wells in 100-µL aliquots of 2× concentrated solutions, in triplicates. To control wells, 100 µL of the medium were added. Cells were incubated with the studied compounds for 72 h at 37 °C and 95%/5% or 90%/10% (HEK 293 cells) CO2 atmosphere. Then, 20-µL aliquots of MTT solution in PBS (4 mg/mL) were added to all wells and plates were incubated further for 3 h in 37 °C. Formazan crystals formed were dissolved in 100 µL of DMSO and the absorbance of the solutions was measured using a multiwell plate reader (Spark, Tecan, Männedorf, Switzerland) at λ = 540 nm. Cytotoxicity was determined compared to the drug-free control. All experiments were performed in triplicates.

[7] = test system: Hep G2; experiment: cells; format: cell-based, human; settings: Hep G2, 72 h, MTT
Method: as §3, §4

[8] = test system: LLC-PK1; experiment: cells; format: cell-based, pig; settings: LLC-PK1, 72 h, MTT
Method: as §3, §4

[9] = test system: HEK 293; experiment: ROS generation (CM-H2DCFDA, flow cytometry); format: cell-based, human; settings: positive cells in 24 h, class
Method: (§5) In the positive controls treated with H2O2, the fraction of ROS-positive cells exceeded 75%. […] Strikingly, in HL-60, a biologically significant effect was observed almost immediately (after 15 min of incubation). The same was noted after 1 h in the HEK 293 cell line. […] Similarly, conjugates 4 and 5 generated ROS at the low level (less than 15% for HL-60 and less than 20% for HEK 293) (manuscript in preparation). […] For HL-60, the critical level of ROS was noted after 15 min of incubation.
(§6) ROS generation activity was evaluated as described previously. Briefly, HEK 293 cells were seeded on 35-mm Petri dishes in the amount of 15,000 cells per plate for 24 h in DMEM medium. […] Positive controls contained 250 µM H2O2, while negative controls were without any additions. After 0.5, 2.5, 5.5, and 24 h of incubation at 37 °C, the CM-H2DCFDA molecular probe (Thermo Fischer Scientific, Waltham, USA) was added to the plates and incubation was continued for another 0.5 h. The HEK 293 cells were detached with 0.05% trypsin solution in PBS and HBSS (Hank’s Balanced Salt Solution) and suspended in fresh DMEM medium. All samples were additionally stained with 7-AAD (7-aminoactinomycin D, 0.8 µg/mL) and immediately analysed with a Guava easyCyte flow cytometer (Merc, Burlington, USA). The determinations were performed in triplicates.

[10] = test system: HL-60; experiment: ROS generation (CM-H2DCFDA, flow cytometry); format: cell-based, human; settings: positive cells in 24 h, class
Method: as §5, §6

[11] = test system: HL-60 and HEK 293 cells; experiment: ROS generation, statements not split by cell line; format: cell-based, human; settings: cell line not specified
Method: as §5, §6

[12] = Stability in PBS and growth media; format: physicochemical; settings: phosphate-buffered saline and growth media used for antibacterial and antifungal tests
Text: CIP-S-S-TP10-NH2 was stable in phosphate-buffered saline (PBS) and growth media used for the determination of antibacterial and antifungal in vitro activity.

[13] = test system: C. albicans SC 5314
[14] = test system: C. albicans Δopt1Δopt5Δptr2Δptr22
[15] = test system: C. albicans Gu4
[16] = test system: C. glabrata DSM 11226
[17] = test system: C. krusei DSM 6128
[18] = test system: S. aureus ATCC 25,923 cells; experiment: Stability inside bacterial cells (LC-MS of cell lysate)
[19] = test system: Gram-positive and Gram-negative bacteria; format: cell-based; settings: MHB, four bacteria
Method: as §1, §2

[20] = test system: human red blood cells; experiment: Hemolysis assay
[21] = test system: C. glabrata DSM 11226; experiment: microbe, parasite or virus in culture; settings: Nakaseomyces glabratus, DSM11226
[22] = test system: C. krusei DSM 6128; experiment: microbe, parasite or virus in culture; settings: Pichia kudriavzevii, DSM6128
[23] = test system: yeasts of the Candida genus; experiment: microbe, parasite or virus in culture; settings: read-out: MIC against Candida strains
[24] = Staphylococcus aureus, ATCC29213
[25] = Staphylococcus epidermidis, ATCC12228
[26] = Pseudomonas aeruginosa, ATCC27853

CC[C@H](C)[C@H](NC(=O)[C@H](CCCCN)NC(=O)[C@H](CCCCN)NC(=O)[C@H](C)NC(=O)[C@H](CC(C)C)NC(=O)[C@H](C)NC(=O)[C@H](C)NC(=O)[C@H](CC(C)C)NC(=O)[C@H](C)NC(=O)[C@H](CCCCN)NC(=O)[C@H](CC(C)C)NC(=O)[C@H](CC(N)=O)NC(=O)[C@@H](NC(=O)[C@H](CCCCN)NC(=O)CNC(=O)[C@H](CC(C)C)NC(=O)[C@H](CC(C)C)NC(=O)[C@H](Cc1ccc(O)cc1)NC(=O)CNC(=O)[C@H](C)NC(=O)CCSSCCC(=O)N1CCN(c2cc3c(cc2F)c(=O)c(C(=O)O)cn3C2CC2)CC1)[C@@H](C)CC)C(=O)N[C@@H](CC(C)C)C(N)=O [Compound 3, CIP-S-S-TP10-NH2]
MIC50 [1]: 0.8 µM (≈ 2.15 µg/mL)
MIC90 [1]: 0.8 µM (≈ 2.15 µg/mL)
MIC50 [2]: 0.8 µM (≈ 2.15 µg/mL)
MIC90 [2]: 0.8 µM (≈ 2.15 µg/mL)
MIC50 [3]: 0.0125 µM (≈ 0.0336 µg/mL)
MIC90 [3]: 0.025 µM (≈ 0.0672 µg/mL)
MIC50 [4]: 0.8 µM (≈ 2.15 µg/mL)
MIC90 [4]: 1.6 µM (≈ 4.3 µg/mL)
IC50 ([5]; class, read-out: Topoisomerase II Inhibition): < 50 µM
IC50 [6]: 13.1 ± 1.22 µM
IC50 [7]: 19 ± 2.08 µM
IC50 [8]: 16.8 ± 2.62 µM
ROS HEK 293 [9]: ++ (++ <10% positive cells in 24 h)
ROS HL-60 [10]: + (+ <15% positive cells in 24 h)
ROS generation [11]: no ROS generation was observed
Stability in PBS and growth media [12]: stable
MIC50 [13]: 6.25 µM (≈ 16.8 µg/mL)
MIC90 [13]: 25 µM (≈ 67.2 µg/mL)
MIC50 [14]: 12.5 µM (≈ 33.6 µg/mL)
MIC90 [14]: 25 µM (≈ 67.2 µg/mL)
MIC50 [15]: 6.25 µM (≈ 16.8 µg/mL)
MIC50 [16]: >200 µM
MIC50 [17]: 25 µM (≈ 67.2 µg/mL)
Stability inside bacterial cells [18]: reduced inside the cell

C[C@H]1COc2c(N3CCN(C)CC3)c(F)cc3c(=O)c(C(=O)O)cn1c23 [LVX, levofloxacin, reference compound]
MIC50 [1, 24]: 0.4 µM (≈ 0.145 µg/mL)
MIC90 [1, 24]: 0.4 µM (≈ 0.145 µg/mL)
MIC50 [2, 25]: 0.8 µM (≈ 0.289 µg/mL)
MIC90 [2, 25]: 1.6 µM (≈ 0.578 µg/mL)
MIC50 ([3]; Escherichia coli, ATCC25922): 0.025 µM (≈ 0.00903 µg/mL)
MIC90 ([3]; Escherichia coli, ATCC25922): 0.025 µM (≈ 0.00903 µg/mL)
MIC50 [4, 26]: 0.8 µM (≈ 0.289 µg/mL)
MIC90 [4, 26]: 0.8 µM (≈ 0.289 µg/mL)
MIC50 range over tested bacteria [19]: 0.0125 to 0.8 µM
MIC90, upper end of range over tested bacteria [19]: ≤ 1.6 µM
Topoisomerase II inhibition at the highest used concentration ([5]; 500 µM): residual activity
IC50 ([6]; Homo sapiens, HEK293): > 200 µM
IC50 ([7]; Homo sapiens, HepG2): > 200 µM
IC50 ([8]; Sus scrofa): > 200 µM
Hemolytic effect [20]: do not cause a hemolytic effect
MIC50 [21]: > 200 µM
MIC50 [22]: > 200 µM
MIC [23]: > 200 µM
